Experimental data as given in patent publication EP4803513A1, “SUBSTITUTED QUINAZOLINE COMPOUND, PREPARATION METHOD THEREFOR, PHARMACEUTICAL COMBINATION THEREOF, AND USE THEREOF” (Hongyun Biotech Co., Ltd., priority 2023, dated 2025).

Assays:
GA6871 = experiment: In vitro activity test of gastric cancer PDX (CellTiter-Glo), GA6871; format: cell-based; conditions: PDX GA6871, gastric cancer with high BRK expression, 168 hours
Protocol: (§1) Patient-derived xenograft (PDX) models are methods in which tumor tissue from cancer patients is transplanted into severely immunodeficient mice for culture and passaging, and used to test compound activity. The compounds of the present invention were tested using three PDX samples (GA0119, GA6208, and GA6871, all being gastric cancers with high BRK expression, all cultured in DMEM).
(§2) Preparation of PDX model tumor cell suspension: PDX model animals were housed in the animal facility, and tumor growth was observed weekly. When the PDX model tumor grew to an appropriate size, the tumor was removed and minced using sterile surgical instruments. Collagenase B digestion solution was added, and digestion was performed at 37°C for approximately 2 hours. Undigested tissue was removed by passing through a cell strainer. The strainer was washed with PBS 3-5 times, and the cell pellet was washed with PBS 4 times. Tumor cells were resuspended in culture medium. ACK lysis buffer was used to remove red blood cells when necessary.
(§3) Cell plating: The above cell suspension was taken and counted. The cell suspension concentration was adjusted to 5.75 × 10^5 cells/mL by dilution with culture medium. 3.5 mL of the cell suspension and 6.5 mL of 1% methylcellulose solution were mixed thoroughly. 100 µL of the cell suspension was added to each well of a 96-well plate (including compound-treated cell plates and T0 control cell plates), followed by incubation overnight under conditions of 37°C, 5% CO2, and 95% humidity.
(§4) Day 0 cell viability reading: The CellTiter-Glo® reagent and T0 control cell culture plate were equilibrated at room temperature for 30 minutes. 100 µL of CellTiter-Glo® reagent was added to each well. The plate was shaken on an orbital shaker for 20 minutes to ensure complete cell lysis. The cell culture plate was then equilibrated at room temperature for 10 minutes, and the chemiluminescence signal was read using an EnVision plate reader.
(§5) Day 0 compound treatment: The test compound (stock concentration 10 mM) was taken out and equilibrated at room temperature for use. The compound treatment cell plate was taken out. The test compound solution was added to the corresponding wells. The highest concentration for each compound was 30 µM, with 3-fold serial dilutions, 9 concentration points, each concentration point in triplicate (DMSO concentration normalized). The final concentration of DMSO in each cell well was 0.3%. The dosed 96-well plate was then placed in an incubator at 37°C, 5% CO2, and 95% humidity for continued culture for 168 hours.
(§6) Day 7 cell viability reading: The CellTiter-Glo® reagent and cell culture plate were equilibrated at room temperature for 30 minutes. 100 µL of CellTiter-Glo® reagent was added to each well. The plate was shaken on an orbital shaker for 20 minutes to lyse the cells. The cell plate was then placed at room temperature for 10 minutes to stabilize the luminescence signal, and the luminescence value was read using an EnVision plate reader.
(§7) Data processing: Data were analyzed using GraphPad Prism 9.0 software. A nonlinear sigmoidal curve regression was used to fit the data and generate a dose-response curve, from which the IC50 value was calculated. Cell survival rate (%) = (Lumtest compound - Lummedium control) / (Lumcell control - Lummedium control) × 100%. Lum represents the luminescence value.

GA0119 = experiment: In vitro activity test of gastric cancer PDX (CellTiter-Glo), GA0119; format: cell-based; conditions: PDX GA0119, gastric cancer with high BRK expression, 168 hours
Protocol: as §1, §2, §3, §4
Day 0 compound treatment: The test compound (stock concentration 10 mM) was taken out and equilibrated at room temperature for use. The compound treatment cell plate was taken out. The test compound solution was added to the corresponding wells. […]
as §6, with “100 µL of CellTiter-Glo® reagent was added to each well. The plate was shaken on an orbital shaker for 20 minutes to lyse the cells.” left out
Data processing: Data were analyzed using GraphPad Prism 9.0 software. A nonlinear sigmoidal curve regression was used to fit the data and generate a dose-response curve, from which the IC50 value was calculated. […] Lum represents the luminescence value.

[1] = tested on: gastric cancer xenograft model GA6208; experiment: In vivo efficacy evaluation of gastric cancer PDX (GA6208); design: species or system Balb/c nude mice; conditions: for Day 35 tumor volume (mean ± SEM): I-21 100 mg/kg oral gavage twice daily, I-81 100/80 mg/kg oral gavage twice daily, cisplatin 3 mg/kg tail vein once weekly, in mm³ (unit assumed); for Day 35 TGI (%): tumor growth inhibition vs vehicle control, same dosing as tumor volume
Text: Tumor tissue was collected from tumor-bearing mice of the gastric cancer xenograft model GA6208, cut into tumor pieces of 2-3 mm in diameter, and subcutaneously inoculated at the right front scapular region of Balb/c nude mice. When the mean tumor volume of the tumor-bearing mice reached approximately 150 mm^3 (100-200 mm^3), the mice were randomly divided into 4 groups of 8 mice each, and administered as follows: vehicle control (0.5% CMC-Na solution, oral gavage, twice daily), compound I-21 (100 mg/kg, oral gavage, twice daily), compound I-81 (100 mg/kg for the first 8 days, then 80 mg/kg for the subsequent 27 days, oral gavage, twice daily), and cisplatin (3 mg/kg, tail vein injection, once weekly), for a total of 35 days.

WT-BaF3 cells = experiment: Cell antiproliferative activity assay (CCK-8), WT-BaF3 (broad-spectrum cytotoxicity); format: cell-based; conditions: 72 h; WT-BaF3 cells (IL-3 supplemented), CCK-8, 3 days incubation
How it was run: (§8)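 Growth inhibition over 3 days, with compound serially diluted 3-fold from a 10 µM top concentration. Cells seeded at 100,000 cells/mL; WT-BaF3 medium carried 10% WEHI supernatant as the IL-3 source. Viability read by CCK-8 OD450 after 2-4 h; IC50 from blank-subtracted curve fit.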

GA6208 = experiment: In vitro activity test of gastric cancer PDX (CellTiter-Glo), GA6208; format: cell-based; conditions: PDX GA6208, gastric cancer with high BRK expression, 168 hours
Protocol: as §1, §2, §3, §4, §5, §6, §7

BRK-BaF3 cells = experiment: Cell antiproliferative activity assay (CCK-8), BRK-BaF3; format: cell-based; conditions: 72 h, CCK-8, 3 days incubation
How it was run: as §8

T47D cells = experiment: Cell antiproliferative activity assay (CCK-8), T47D; format: cell-based; conditions: Homo sapiens, 72 h, breast cancer cell line T47D, incubation for 3 days
Protocol: BRK-BaF3, WT-BaF3, WEHI cell line, and breast cancer cell line T47D were cultured using RPMI 1640 Basal medium or DMEM (Dulbecco's Modified Eagle Medium) (Shanghai Peiyuan Biotechnology, L220KJ), supplemented with 10% FBS (Gibco, REF 10099-141C) and 1% P/S (Shanghai Peiyuan Biotechnology, S110JV), in an incubator (Thermo 3020) at 37°C with 5% CO2. Cell viability was above 95%. Cells were passaged at a 3:1 ratio every 3-4 days. For WT-BaF3 cells, WEHI cells were first cultured, and their culture supernatant was filtered through a 0.22 µm filter. This supernatant was added at 10% to the regular culture medium to supplement IL-3 required for WT-BaF3 cell proliferation, which served as the culture medium for WT-BaF3. For testing, cells were first collected and counted, then prepared into a cell suspension at 100,000 cells/mL and plated at 100 µL per well. Drug concentrations started from 10 µM and were serially diluted 3:1. After incubation for 3 days, 20 µL of CCK-8 detection reagent (Targetmol C005) was added to each well. After incubation for 2-4 hours, OD450 was measured using a microplate reader (Varioskan LUX, Thermo Scientific). After subtracting the blank background, the curve was fitted and the IC50 was calculated using XLfit software.
In addition, the following table exemplarily lists the IC50 values of some compounds of the present invention against T47D cells.

Row | IC50 (GA6871) | IC50 (GA0119) | IC50 (GA6208) | IC50 (BRK-BaF3 cells) | IC50 (T47D cells) | Compound | Day 35 tumor volume (mean ± SEM) [1] | Day 35 TGI (%) [1] | IC50 (WT-BaF3 cells)
1 | 7130 nM | 4540 nM | 3920 nM | ≤ 20 nM | – | Cc1nn(CCO)cc1Nc1ncc2cc(-c3nccnc3C)cc(C(C)C)c2n1 [I-81] | 595.03±30.63 | 57.89% | > 2500 nM
2 | 9280 nM | 8010 nM | 5630 nM | ≤ 20 nM | ≤ 500 nM | COc1c(P(C)(C)=O)ccc(Nc2ncc3cc(-c4nccnc4C)cc(C4CC4)c3n2)c1F [II-69] | – | – | > 2500 nM

The remaining lines, values behind:

Row | Compound | IC50 (GA6871) | IC50 (GA0119) | IC50 (GA6208) | IC50 (BRK-BaF3 cells) | IC50 (T47D cells) | Day 35 tumor volume (mean ± SEM) [1] | Day 35 TGI (%) [1] | IC50 (WT-BaF3 cells)
3 | N.N.[Cl][Pt][Cl] [cisplatin, reference compound] | 4280 nM | 1380 nM | 298 nM | – | – | 1250.42±137.64 | 11.50% | –
4 | Cc1nn(CCO)cc1Nc1ncc2cc(-c3nccnc3C)cc(C(F)(F)F)c2n1 [I-109] | 17000 nM | – | 8530 nM | ≤ 20 nM | – | – | – | > 2500 nM
5 | Cc1nn(CCO)cc1Nc1ncc2cc(-c3cccnc3)cc(C(C)C)c2n1 [I-21] | 2130 nM | 1140 nM | 620 nM | ≤ 20 nM | – | 782.88±71.02 | 44.59% | > 2500 nM
